According to PMC3454376, “Salidroside Improves Behavioral and Histological Outcomes and Reduces Apoptosis via PI3K/Akt Signaling after Experimental Traumatic Brain Injury” (PLoS ONE, 2012):

What was measured:
[1] = test system: mice subjected to controlled cortical impact injury; test: Residual cerebral tissue ratio, cresyl violet staining; format: in vivo; settings: day 28; for preservation of brain tissue (ipsilateral/contralateral hemisphere volume): vehicle 76.4±3.3%, P<0.05
Procedure: All animal procedures were approved by the Animal Research Committee at Cheng Hsin General Hospital (Animal permit number CHIACUC 101–08), and all procedures complied with the Guide for the Care and Use of Laboratory Animals published by the US National Institutes of Health (NIH Publication No. 85–23, revised 1996). Animals were housed under a 12-h light/dark cycle and at constant temperature (21–25°C) and humidity (45–50%). They were allowed free access to pellet chow and water. TBI in mice was induced by a CCI injury model as previously described. Briefly, 8-week-old male C57BL/6 mice (weighing 22–25 g) were anesthetized through the use of intraperitoneal injection of sodium pentobarbital (65 mg/kg; Rhone Merieux, Harlow, UK) and placed in a stereotaxic frame. A 5 mm craniotomy was performed over the right parietal cortex, centered on the coronal suture and 0.1 mm lateral to the sagittal suture, and injury to dura was avoided. Injury was induced using a pneumatic piston with a rounded metal tip (2.5 mm diameter) that was angled 22.5° to the vertical so that the tip was perpendicular with the brain surface at the center of the craniotomy. The impact, with a velocity of […] and a deformation depth of 2 mm below the dura, was applied. The bone flap was immediately replaced and sealed, and the scalp was sutured. Body temperature was monitored throughout the surgery by a rectal probe; temperature was maintained at 37.0±0.5°C using a heated pad. Mice were placed in a heated cage to maintain body temperature, while recovering from anesthesia. Sham-operated mice underwent the same procedure as injured mice, but without CCI.
Mice were anesthetized and positioned in a stereotaxic frame. LY294002 (200 nM in 0.5 µL of saline) or equal amount of physiological saline was intracerebroventricularly (icv) injected at 30 min before CCI as previously described. A 1 mm cranial burr hole was drilled into the skull. A 30-gauge needle on a Hamilton syringe was implanted into the lateral ventricle using stereotactic coordinates: 1.5 mm posterior to bregma and 1.0 mm right lateral to the midline, 2 mm in depth. LY294002 or saline was infused into the brain at a rate of 0.05 µL/min over 10 min with an infusion pump (KDS 310, KD Scientific Inc., Holliston, MA, USA), and the needle was left in place for an additional 20 min to prevent reflux. After the needle was removed, CCI procedure was conducted immediately. Sham-operated mice were infused icv with saline, but were not subjected to CCI.
Three sets of experiments were performed. […] To determine the optimal dose of salidroside, a pilot study was performed using 2 different doses (20 and 50 mg/kg) administered 10 min after injury, and neurological deficits and tissue damage were evaluated as the main outcomes. […]

cleaved caspase-3 = test: Western blot, injured cortex; format: in vivo, mice; settings: for decrease of cleaved caspase-3 level versus vehicle: 20 mg/kg ip 10 min after CCI, P<0.05
Procedure: Three sets of experiments were performed. The first set was to investigate the protective effects of salidroside. All animals were randomized into 1 of 3 groups (sham injury, CCI + vehicle, CCI + SALD 20). Surgery/injury, behavioral testing, and tissue analyses were performed by different individuals. Behavioral testing and tissue analyses were performed by individuals blinded to the treatment group. Salidroside (Cayman Chemical, Ann Arbor, MI, USA) dissolved in normal saline (0.25 mL) or a corresponding volume of vehicle (saline) was administered intraperitoneally 10 min following injury. Testing after injury was completed as follows: 1) behavioral testing at days 1, 4, 7, 14, 21, and 28 (n = 8–10 mice/group); 2) cresyl violet staining at day 28 (n = 9 mice/group); 3) histology, determination of brain water content, and western blot analysis at day 1 or 3 (n = 5–6 mice/group). To determine the optimal dose of salidroside, a pilot study was performed using 2 different doses (20 and 50 mg/kg) administered 10 min after injury, and neurological deficits and tissue damage were evaluated as the main outcomes. […] The second set of experiment was to assess the effect of the inhibition of PI3K/Akt with the specific PI3K inhibitor, LY294002 (Cell Signaling Technology, Danvers, MA, USA), on salidroside effects. Animals were randomized into 4 groups. Mice received either: 1) icv pretreatment of LY294002 followed by SALD 20 after CCI (S20Y group); or 2) icv pretreatment of saline (vehicle control) followed by SALD 20 after CCI (S20V group). 3) Mice were infused icv with saline and were subjected to sham injury. 4) Mice were infused icv with LY294002 and were subjected to sham injury. […] Protein concentration was determined by Bradford reagent spectrophotometrically at A595. […] The relative intensity of protein signals was normalized to the corresponding β-actin intensity and was quantified by densitometric analysis with the use of Image J software.

OC[C@H]1O[C@@H](OCCc2ccc(O)cc2)[C@H](O)[C@@H](O)[C@@H]1O [SALD, salidroside]
preservation of brain tissue (ipsilateral/contralateral hemisphere volume) ([1]; 20 mg/kg ip 10 min after CCI): 81.9±2.6%
preservation of brain tissue (ipsilateral/contralateral hemisphere volume) ([1]; 50 mg/kg ip 10 min after CCI): 80.7±2.8%
residual cerebral tissue ratio ([1]; icv saline 30 min before CCI, then SALD 20 mg/kg ip (S20S group)): 80.5±5.8%
decrease of cleaved caspase-3 level versus vehicle (cleaved caspase-3; day 1): 49.6%
decrease of cleaved caspase-3 level versus vehicle (cleaved caspase-3; day 3): 34.9%
reduction of cleaved caspase-3 level (cleaved caspase-3; 20 mg/kg ip 3 h after injury, day 1): 34.1%
